{
  "source": "patent US10144726B2",
  "about": "“Modulators of the p70S6 kinase for use in the treatment of brain disorders and triple-negative breast cancer” (SENTINEL ONCOLOGY LIMITED, priority 2015, dated 2018)",
  "key": {"p70S6K (h)": {"target": "p70S6K (h) (Homo sapiens, UniProt P23443)", "sequence (P23443 whole entry)": "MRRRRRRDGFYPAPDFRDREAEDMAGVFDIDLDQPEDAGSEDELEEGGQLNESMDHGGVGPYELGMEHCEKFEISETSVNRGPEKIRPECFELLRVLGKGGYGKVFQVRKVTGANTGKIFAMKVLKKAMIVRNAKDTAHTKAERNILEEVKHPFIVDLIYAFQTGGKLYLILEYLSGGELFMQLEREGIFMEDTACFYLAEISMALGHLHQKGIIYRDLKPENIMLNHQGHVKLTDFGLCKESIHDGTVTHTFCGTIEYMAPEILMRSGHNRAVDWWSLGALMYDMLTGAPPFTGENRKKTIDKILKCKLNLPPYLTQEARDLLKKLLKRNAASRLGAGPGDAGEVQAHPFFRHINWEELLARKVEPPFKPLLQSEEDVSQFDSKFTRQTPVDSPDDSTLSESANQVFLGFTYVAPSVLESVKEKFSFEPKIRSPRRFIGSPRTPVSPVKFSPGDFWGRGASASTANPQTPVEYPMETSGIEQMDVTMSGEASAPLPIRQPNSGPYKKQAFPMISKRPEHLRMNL", "assay": "Determination of p70S6 inhibitory activity (radiometric kinase assay)", "assay_type": "biochemical", "conditions": "read-out: (a) p70S6K1 IC50", "procedure": "The ability of compounds of the invention to inhibit P70S6 kinase was determined using the protocol below.\n20 mM MOPS, 1 mM EDTA, 0.01% Brij-35, 5% Glycerol, 0.1% b-mercaptoethanol, 1 mg/mL BSA\nIn a final reaction volume of 25 μL, p70S6K (h) (5-10 mU) is incubated with 8 mM MOPS pH 7.0, 0.2 mM EDTA, 100 μM KKRNRTLTV, 10 mM Mg acetate and [γ-33P-ATP] (specific activity approx. 500 cpm/pmol, concentration as required). The reaction is initiated by the addition of the MgATP mix. After incubation for 40 minutes at room temperature, the reaction is stopped by the addition of 5 μL of a 3% phosphoric acid solution. 10 μL of the reaction mixture is then spotted onto a P30 filtermat and washed three times for 5 minutes in 75 mM phosphoric acid and once in methanol prior to drying and scintillation counting."}, "[1]": {"tested_on": "phosphorylation of S6 Ser235/236 in MCF-7 cells", "assay": "MCF-7 pS6 ELISA (phosphorylation of S6 Ser235/236)", "assay_type": "cell-based", "conditions": "Homo sapiens, MCF7; S6 Ser235/236, 1% FBS, 2 h; read-out: (b) MCF-7 pS6 ELISA IC50", "procedure": "The following assay provides IC50 values for inhibition of P70S6K activity in a whole cell assay by determining effects on the phosphorylation of S6^Ser235/236 in MCF-7 cells by ELISA.\nThe following protocol was used: • 1) MCF-7 cells were seeded in 96-well plates at a density of 7000 cells per well and allowed to adhere for 6 h in media containing 10% FBS. • 2) The full serum media was replaced and cells incubated overnight in media containing 1% FBS, prior to addition of test compounds. • 3) Test compounds were prepared from 10 mM DMSO stocks to give final concentration ranges as indicated on graphs. DMSO was constant at a final concentration of 1%. • 4) Test compounds were incubated with cells in duplicate for 2 h at 37° C/5% CO2 in a humidified atmosphere. • 5) The media was removed and cells were lysed by freeze-thawing in cell lysis buffer. • 6) Detection of phosphorylated S6Ser235/236 was then carried out using a PathScan ELISA kit (Cell Signaling Technology #7205). • 7) Lysates were diluted 1:1 with sample diluent before being applied to wells coated with an antibody against phosphorylated-S6 protein. • 8) The ELISA was then performed as stated in the manufacturers' instructions. • 9) The raw data were normalised to control values and analysed using a 4-parameter logistic equation in GraphPad Prism."}, "[2]": {"assay": "Brain and plasma concentrations in an in vivo cassette mouse model", "parameters": "species or system male CD-1 mice", "conditions": "male, PO cassette, 2.5 mg/kg per compound", "procedure": "The compounds of this invention were evaluated in an in vivo cassette mouse model to determine brain and plasma concentrations following oral dosing. This is an industry-standard and recognised means to assess brain penetration of small molecules (for recent literature article, refer to In vitro permeability analysis, pharmacokinetic and brain distribution study in mice of imperatorin, isoimperatorin and cnidilin in Radix Angelicae Dahuricae, Fitoterapia, Volume 85, March 2013 , Pages 144-153). It is also recognised that higher brain concentrations (and higher ratios of brain: plasma concentration) lead to greater exposure in the brain—this is clearly advantageous if the brain is the site of action.\nFor a single cassette study, male CD-1 mice were used (n=3 per timepoint, two timepoints: 1.0 hr and 3.0 hr).\n5 compounds were dosed PO per cassette (dose level 2.5 mg/kg per compound, dose conc. 0.25 mg/ml, dose volume 10.0 ml/kg).\nFormulation used to solubilize compounds: 10% DMSO/90% hydroxypropyl-β-cyclodextrin (20% w/v aqueous)\nSampling was terminal and plasma and brain matrices were generated. To prepare plasma samples, protein was precipitated using acetonitrile. To prepare brain samples, homogenisation and protein precipitation was performed with acetonitrile. Samples were analysed using HPLC-TOF MS using electrospray ionisation."}},
  "note": "Read-outs that look alike come from different tables or passages of the source.",
  "data": [
    {"smiles": "C[C@@H](Nc1cnc2cc(-c3cn[nH]c3)ccc2n1)c1cccc(Cl)c1", "note": "[Example 15]", "values": [
      {"measurement": "IC50", "setting": "p70S6K (h)", "value": 6, "unit": "nM"},
      {"measurement": "IC50", "setting": "[1]", "value": 500, "unit": "nM"},
      {"measurement": "concentration at 3 h", "setting": "[2]; CD-1, brain, read-out: (d) Brain conc. at 3 hours", "value": 2430, "unit": "nM"},
      {"measurement": "Kp at 3 h", "setting": "[2]; CD-1, brain, read-out: (d) Brain: Plasma ratio at 3 hours", "value": 2},
      {"measurement": "concentration at 3 h", "setting": "[2]; CD-1, plasma, read-out: (d) Plasma conc. at 3 hours", "value": 1190, "unit": "nM"}
    ]}
  ]
}
